Drawing on ChEMBL document CHEMBL6182843, “Actinomycetes: Treasure trove for discovering novel antibiotic candidates” (2025), this text covers MIC for 18 molecules.

What all share (type): functional
In assay [1] the test system is Staphylococcus aureus. Description: Antibacterial activity against methicillin-resistant Staphylococcus aureus.
A further assay deals with Escherichia coli. Description: Antibacterial activity against Escherichia coli.
Assay [2] concerns Staphylococcus aureus. Description: Antibacterial activity against Staphylococcus aureus.
The subject of another assay is Bacillus subtilis. Description: Antibacterial activity against Bacillus subtilis.

≈ marks a conversion by molar mass, not a printed value.

One may read the MIC as the lowest concentration found to suppress growth. A high value points to a need for much substance. As to `CC(C)c1cc(=O)c2c(cc(O)c3c(=O)c4c(O)c(Br)ccc4c(=O)c32)c1=O`, in the assay on Staphylococcus aureus [1], the minimal inhibitory concentration (MIC) worked out at 0.098 µg/mL.

Take `CC[C@@H]1NC(=O)[C@@H](CC(C)C)NC(=O)C(NC(=O)[C@@H](CC(=O)C(CC(=O)C(CC(O)c2ccccc2)NC(=O)[C@@H](CCCN)NC(=O)CCNC(=O)/C=C\C=C\C(C)C)C(O)CC(=O)O)Cc2ccc(O[C@@H]3OC[C@H](O)[C@H](O)[C@H]3O)cc2)C(C)NC(=O)[C@@H]2CCCN2C(=O)[C@H](C)NC(=O)[C@H](CC(=O)c2ccc(Cl)cc2N)NC(=O)CNC(=O)[C@H](CO)NC(=O)CNC1=O` (stereo partly drawn): the minimal inhibitory concentration (MIC) in the assay with Escherichia coli is greater than 64 µg/mL; against Staphylococcus aureus [2], 0.5 µg/mL (≈ 0.275 µM).

Consider `CCc1c(Cc2ccccc2)oc(=O)c(CC)c1O`, for which the MIC against Staphylococcus aureus [1] was 12.5 µg/mL; against Bacillus subtilis, greater than 50 µg/mL. Consider `C=CC(C)(C)ON(CCCCCCC(O)CCCCCc1nc(CCCNC(=N)NCC=C(C)C)c(OC)nc1CCCNC(=N)NCC=C(C)C)C(=N)N` (stereo not drawn), for which the minimum inhibitory concentration (MIC) in the assay with Staphylococcus aureus [1] and in the assay with Escherichia coli was 1 µg/mL each time. `COC(=O)c1csc(-c2nc3c(-c4ccc(OC)cc4)c(OC)c(O)c(-c4ccc(OC)cc4)c3s2)n1`: the MIC against Staphylococcus aureus [1] was greater than 50 µg/mL; in the assay on Bacillus subtilis, 0.8 µg/mL (≈ 1.5 µM); against Escherichia coli, 0.8 µM.

Regarding `C=CC(C)(C)ON(CCCCCCCCCCCC(O)c1nc(CCCNC(=N)N)c(OC)nc1CCCNC(=N)N)C(=N)N` (stereo not drawn), the MIC with Staphylococcus aureus [1] stood at 0.8 µg/mL; in the assay on Escherichia coli it was 1.5 µg/mL. `CC[C@@H]1NC(=O)[C@@H](CC(C)C)NC(=O)C(NC(=O)[C@@H](CC(=O)C(CC(=O)C(CC(O)c2ccccc2)NC(=O)[C@@H](CCCNC(=O)CCN)NC(=O)CCNC(=O)/C=C\C=C\C(C)C)C(O)CC(=O)O)Cc2ccc(O[C@@H]3OC[C@H](O)[C@H](O)[C@H]3O)cc2)C(C)NC(=O)[C@@H]2CCCN2C(=O)[C@H](C)NC(=O)[C@H](CC(=O)c2ccc(Cl)cc2N)NC(=O)CNC(=O)[C@H](CO)NC(=O)CNC1=O` (stereo partly drawn): the MIC in the assay on Escherichia coli is greater than 64 µg/mL; with Staphylococcus aureus [2], 1 µg/mL (≈ 0.53 µM).

`CC(=O)NC(CSc1c(C(C)C)c(=O)c2cc(O)c3c(=O)c4c(O)cccc4c(=O)c3c2c1=O)C(=O)O` (stereo not drawn) displayed a minimum inhibitory concentration (MIC) against Staphylococcus aureus [1] of 0.195 µg/mL.

With `COC(=O)CCSC1=C(c2ccc(OC)cc2)C(O)C(OC)=C(c2ccc(OC)cc2)C1=O` (stereo not drawn), in the assay on Staphylococcus aureus [1], the minimal inhibitory concentration (MIC) amounted to 12.5 µM. Regarding `C=CC(C)(C)ON(CCCCCCC(O)CCCCC(O)c1nc(CCCNC(=N)NCC=C(C)C)c(OC)nc1C(O)CCNC(=N)NCC=C(C)C)C(=N)N` (stereo not drawn), the MIC in the assay on Staphylococcus aureus [1] and in the assay on Escherichia coli was 2 µg/mL each time. As to `COC(=O)/C(C)=C/CC[C@H](OC)[C@@H](OC(N)=O)/C(C)=C/[C@H](C)[C@@H](O)[C@H](C[C@H](C)CC1=C(OC)C(=O)C2=C(NC(=O)[C@@H](C)S2)C1=O)OC`, the minimum inhibitory concentration (MIC) in the assay with Bacillus subtilis and against Staphylococcus aureus [2] was 64 µg/mL (≈ 94 µM) each time. For `C=CC(C)(C)ON(CCCCCCC(O)CCCCC(O)c1nc(CCCNC(=N)NCC=C(C)C)c(OC)nc1CCCNC(=N)NCC=C(C)C)C(=N)N` (stereo not drawn), the minimum inhibitory concentration (MIC) was 3 µg/mL against Staphylococcus aureus [1] and 4 µg/mL against Escherichia coli. For `O=C1c2ccc3cc([C@@H](O)CO)cc(O)c3c2C(=O)c2cccc(O)c21`, the MIC was 0.39 µg/mL against Staphylococcus aureus [1], 0.78 µg/mL (≈ 2.23 µM) with Bacillus subtilis and 1.56 µg/mL in the assay with Escherichia coli. Regarding `CSc1c(C(C)C)c(=O)c2cc(O)c3c(=O)c4c(O)cccc4c(=O)c3c2c1=O`, in the assay on Staphylococcus aureus [1], the MIC came to 3.12 µg/mL. On to `C=CC(C)(C)ON(CCCCCCCCCCCC(O)c1nc(CCCNC(=N)NCC=C(C)C)c(OC)nc1C(O)CCNC(=N)NCC=C(C)C)C(=N)N` (stereo not drawn), for which the minimum inhibitory concentration (MIC) with Staphylococcus aureus [1] and with Escherichia coli was 0.5 µg/mL in each case. As for `C=CC(C)(C)ON(CCCCCCCCCCCCc1nc(CCCNC(=N)N)c(OC)nc1CCCNC(=N)N)C(=N)N`, the minimum inhibitory concentration (MIC) in the assay with Staphylococcus aureus [1] and against Escherichia coli was 1 µg/mL throughout. Regarding `C[C@H]1[C@H](NC(=O)/C(=N\OC(C)(C)C(=O)O)c2csc(N)n2)C(=O)N1S(=O)(=O)O` [AZTREONAM], the MIC against Staphylococcus aureus [1] and with Escherichia coli was 0.25 µg/mL throughout. `O=C(N[C@H](CO)[C@H](O)c1ccc([N+](=O)[O-])cc1)C(Cl)Cl` [CHLORAMPHENICOL] had an MIC against Staphylococcus aureus [1] of 3.12 µg/mL.
